Data on 14 molecules can be found in patent US12258337B2, “Bicyclic CX3CR1 receptor agonists” (Board of Regents, The University of Texas System, priority 2019, dated 2025).

Holding throughout (assay type): cell-based
For one test, the target named is T1, mCX3CR1 (Mus musculus, UniProt Q9Z0D9).
T1 construct: expressed in transfected cells; stably expresses a Ca2+ sensitive photo-protein
T1 sequence (Q9Z0D9 1-354): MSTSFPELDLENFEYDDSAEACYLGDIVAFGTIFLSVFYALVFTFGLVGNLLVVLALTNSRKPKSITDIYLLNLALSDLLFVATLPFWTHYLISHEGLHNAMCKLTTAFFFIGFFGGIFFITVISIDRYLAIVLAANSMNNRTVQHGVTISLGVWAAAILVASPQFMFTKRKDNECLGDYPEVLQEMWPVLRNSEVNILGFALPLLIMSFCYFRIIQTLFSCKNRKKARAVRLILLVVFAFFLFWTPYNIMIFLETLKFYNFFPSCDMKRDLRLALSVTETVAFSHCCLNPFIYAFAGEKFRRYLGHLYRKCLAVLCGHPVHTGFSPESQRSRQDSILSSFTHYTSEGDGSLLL
Kind of test: Ga16 assay, CX3CR1 agonism, Ca2+ sensitive photo-protein readout (FLIPRTETRA). The settings on record: mouse CX3CR1 cell line. The procedure, abridged: (§1)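 Cells expressing human, mouse or rat CX3CR1 with a stably expressed Ca2+-sensitive photoprotein were loaded with 10 μM coelenterazine in tyrode buffer pH 7.4 for 3 h at room temperature. Agonist-mode luminescence kinetics were recorded for 90 s after compound injection on FLIPRTETRA. Dose-response runs were done in quadruplicate, with fractalkine as the reference agonist.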

The next test deals with T2, rCX3CR1 (Rattus norvegicus, UniProt P35411).
T2 construct: expressed in transfected cells; stably expresses a Ca2+ sensitive photo-protein
T2 sequence (P35411 1-354): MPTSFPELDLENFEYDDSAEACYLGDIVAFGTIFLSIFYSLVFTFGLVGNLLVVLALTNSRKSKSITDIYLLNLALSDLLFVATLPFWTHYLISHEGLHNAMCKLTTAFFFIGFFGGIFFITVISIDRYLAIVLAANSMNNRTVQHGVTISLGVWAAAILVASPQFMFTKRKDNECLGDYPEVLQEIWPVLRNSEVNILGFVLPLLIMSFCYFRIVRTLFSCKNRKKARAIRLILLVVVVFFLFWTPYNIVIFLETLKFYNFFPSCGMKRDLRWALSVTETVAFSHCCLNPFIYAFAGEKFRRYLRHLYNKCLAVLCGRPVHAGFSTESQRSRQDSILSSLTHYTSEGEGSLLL
The test is described as above. As to conditions: rat CX3CR1 cell line. The procedure, abridged: as §1

Test [1] addresses T3, hCX3CR1 (Homo sapiens, UniProt P49238).
T3 sequence (P49238 1-355): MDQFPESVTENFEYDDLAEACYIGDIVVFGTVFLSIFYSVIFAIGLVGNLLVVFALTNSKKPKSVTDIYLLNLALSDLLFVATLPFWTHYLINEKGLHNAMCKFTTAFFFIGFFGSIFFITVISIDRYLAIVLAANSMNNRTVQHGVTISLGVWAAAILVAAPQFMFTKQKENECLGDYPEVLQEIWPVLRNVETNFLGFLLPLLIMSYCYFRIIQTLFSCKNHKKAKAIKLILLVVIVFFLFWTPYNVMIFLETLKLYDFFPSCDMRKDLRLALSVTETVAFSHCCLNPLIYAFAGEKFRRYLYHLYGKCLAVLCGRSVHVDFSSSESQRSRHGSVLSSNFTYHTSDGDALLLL
Described as above. Details: expressed in transfected cells; stably expresses a Ca2+ sensitive photo-protein. As to conditions: human CX3CR1 cell line. The procedure, abridged:
as §1

Test [2] has as its target T3, hCX3CR1. The experiment in a line: ChAMPion assay (CHO ChAMPion/CX3CR1 K1.6, cAMP/CNG channel, photoprotein luminescence). The settings on record: ChAMPion assay, CHO ChAMPion/CX3CR1 K1.6, Forskolin 3 μM; read-out: hCX3CR1 agonism EC50. Details: expressed in transfected cells; stably expresses a Ca2+ sensitive photo-protein. The method, then: Buffers and reagents. PBS (D-PBS without calcium and magnesium; EuroClone); Trypsin (Trypsin 0.05%, EDTA 0.02% in PBS; EuroClone); DMSO (Sigma); Tyrode buffer Ca^2+ free: in-house solution (130 mM NaCl, 5 mM KCl, 1 mM MgCl^2, 5 mM NaHCO3, 20 mM HEPES (pH 7.4); sterile filtered and autoclaved); Tyrode buffer 10 mM Ca^2+: in-house solution (130 mM NaCl, 5 mM KCl, 10 mM CaCl2), 1 mM MgCl2, 5 mM NaHCO3, 20 mM HEPES, in water at pH 7.4, sterile filtered); Coelenterazine, native (Biosynth); stock 10 mM; Agonist: Recombinant Human Fractalkine (CX3CL1) (PeproTech); stock: 10 μM in standard Tyrode buffer/BSA 01%; stored at −20° C.
Cell line. The final clone for the hCX3CR1 assay was CHO ChAMPion/CX3CR1 K1.6. ChAMPion technology is based on the co-expression of a Ca^2+ sensitive photoprotein and of a cyclic nucleotide-gated (CNG) channel acting as a cAMP biosensor in a CHO-K1 cell line. CNG channels are non-selective ligand gated cation channels that can be opened by the direct interaction with either cAMP or cGMP, at the intracellular C-terminus site of the channel. Channel opening allows the flux of extracellular calcium into the cell cytoplasm and its transient elevation can be recorded by means of several different calcium indicators. In the chAMPion system, the CNG channel has been modified to display sensitivity to cAMP levels in the physiological range. In addition the calcium influx through the opened channel is immediately detected by the recording of the photoprotein-emitted flash type luminescence signal.
The chAMPion cell line system can monitor the activation of transfected Gαi-coupled receptors, which elicit changes in 3,‘5’-adenosine cyclic monophosphate (cAMP) levels, which in turn is responsible for CNG opening and consequent Ca^2+ influx.
Assay protocol. Experiments were performed in 384 MTP format. Cells were seeded at 10,000 cells/well in 25 μL/well complete growth medium without selection antibiotics in 384-well plates. Twenty-four hours later, cells were assayed for the response to various compounds using the Ca^2+ sensitive photo-protein stably expressed in the cells as readout.
The experiment was performed in a 384-well format according to the following procedure: • 24h after seeding, pre-incubate the cells at room temperature for 1 hour. • Then remove the culture medium. • Load cells with 20 μL/well of Ca^2+ free tyrode buffer+ceolenterazine 5 μM. • Incubate cell plates for 4 hours at RT. • 10 μl/well of 3× concentrated compounds in Ca^2+ free tyrode buffer+Forskolin 9 μM (final Forskolin concentration=3 μM) are applied to the cells (at 10 μl/s). Ten minutes later a second injection is performed: 10 μl/well of Ca^2+ free tyrode buffer+BSA 0.04% (final BSA concentration=0.01%). Twenty minutes later a third injection is performed: 20 μl/well of 10 mM Ca^2+ tyrode buffer (final Ca^2+ concentration was 3.3 mM) and luminescence is recorded for 90 seconds.
Data from FLIPRTETRA measurements are analyzed with the Genedata Screener© software.

By EC50 is commonly meant the midpoint of the concentration-response curve. On to `CC(CNC(=O)c1cc2c(s1)CCCCCC2)CN(C)C` (centres unmarked) [Example 3, N-[3-(dimethylamino)-2-methylpropyl]-4,5,6,7,8,9-hexahydrocycloocta[b]thiophene-2-carboxamide], for which the EC50 at mCX3CR1 came out at 75.1 µM; at rCX3CR1, 77.2 µM; on hCX3CR1 [1] it was 21 µM; on hCX3CR1 [2], 30 µM.
Turning to `O=C(NCC1(CN2CCCC2)CC1)c1cc2c(s1)CCCCCC2` [Example 4, N-[[1-(pyrrolidin-1-ylmethyl)cyclopropyl]methyl]-4,5,6,7,8,9-hexahydrocycloocta[b]thiophene-2-carboxamide], the 50% effective concentration (EC50) at mCX3CR1 came out at 16.2 µM; on rCX3CR1, 15.4 µM; at hCX3CR1 [1], 14.6 µM; at hCX3CR1 [2], 2.8 µM.
Regarding `CCCN(C)CC1(CNC(=O)c2cc3c(s2)CCCCCC3)CCCC1` [Example 6, N-[[1-[[methyl(propyl)amino]methyl]cyclopentyl]methyl]-4,5,6,7,8,9-hexahydrocycloocta[b]thiophene-2-carboxamide], the EC50 at mCX3CR1 came to 18.1 µM; on rCX3CR1, 14.6 µM; at hCX3CR1 [1], 15.1 µM; on hCX3CR1 [2], 4.5 µM.
With `CN(C)CC(C)(C)CN(C)C(=O)c1cc2c(s1)CCCCCC2` [Example 7, N-[3-(dimethylamino)-2,2-dimethylpropyl]-N-methyl-4,5,6,7,8,9-hexahydrocycloocta[b]thiophene-2-carboxamide], the EC50 at mCX3CR1 came out at 26.1 µM; at rCX3CR1, 44.5 µM; on hCX3CR1 [1], 15.7 µM; at hCX3CR1 [2], 9.9 µM.
The like results for `CCC(CC)(CNC(=O)c1cc2c(s1)CCCCCC2)CN(C)C` [Example 8, N-[2-[(dimethylamino)methyl]-2-ethylbutyl]-4,5,6,7,8,9-hexahydrocycloocta[b]thiophene-2-carboxamide] were, in that order, 17.1 µM, 20 µM, 16.2 µM and 11.2 µM.
As for `CCC(CC)(CNC(=O)c1cc2c(s1)CCCCCC2)CN1CCCC1` [Example 9, N-[2-ethyl-2-(pyrrolidin-1-ylmethyl)butyl]-4,5,6,7,8,9-hexahydrocycloocta[b]thiophene-2-carboxamide], the half-maximal effective concentration (EC50) at mCX3CR1 was 11.8 µM; at rCX3CR1 it was 14.9 µM; at hCX3CR1 [1], 11 µM; at hCX3CR1 [2], 4.1 µM.
`CN(C)CC1(CNC(=O)c2cc3c(s2)CCCCCC3)Cc2ccccc2C1` [Example 10, N-[[2-[(dimethylamino)methyl]-1,3-dihydroinden-2-yl]methyl]-4,5,6,7,8,9-hexahydrocycloocta[b]thiophene-2-carboxamide]: the EC50 at mCX3CR1 was 19.4 µM; on rCX3CR1 it was 18.8 µM; on hCX3CR1 [1], 20.5 µM; on hCX3CR1 [2] it was 12.2 µM.
The like results for `O=C(NCC1(CN2CCCC2)Cc2ccccc2C1)c1cc2c(s1)CCCCCC2` [Example 11, N-[[2-(pyrrolidin-1-ylmethyl)-1,3-dihydroinden-2-yl]methyl]-4,5,6,7,8,9-hexahydrocycloocta[b]thiophene-2-carboxamide] were, in that order, 15.4 µM, 19.6 µM, 20.5 µM and 6.3 µM.
With `CCN(CC)CC1(CNC(=O)c2cc3c(s2)CCCCCC3)CCCC1` [Example 12, N-[[1-(diethylaminomethyl)cyclopentyl]methyl]-4,5,6,7,8,9-hexahydrocycloocta[b]thiophene-2-carboxamide], the EC50 at mCX3CR1 was found to be 9.1 µM; on rCX3CR1, 12.2 µM; at hCX3CR1 [1], 13.3 µM; on hCX3CR1 [2] it was 6.2 µM.
`O=C(NCC1(CN2CCC2)CCCC1)c1cc2c(s1)CCCCCC2` [Example 14, N-[[1-(azetidin-1-ylmethyl)cyclopentyl]methyl]-4,5,6,7,8,9-hexahydrocycloocta[b]thiophene-2-carboxamide]: the half-maximal effective concentration (EC50) worked out at 15.2 µM at mCX3CR1, 9.3 µM at rCX3CR1, 9.1 µM on hCX3CR1 [1] and 1.6 µM at hCX3CR1 [2].
The matching figures for `CCN(CC)CC(C)(C)CNC(=O)c1cc2c(s1)CCCCCC2` [Example 16, N-[3-(diethylamino)-2,2-dimethylpropyl]-4,5,6,7,8,9-hexahydrocycloocta[b]thiophene-2-carboxamide]: 103 µM, 19.7 µM, 13.6 µM and 6.6 µM.
Regarding `CN(CCO)CC1(CNC(=O)c2cc3c(s2)CCCCCC3)CCCC1` [Example 17, N-[[1-[[2-hydroxyethyl(methyl)amino]methyl]cyclopentyl]methyl]-4,5,6,7,8,9-hexahydrocycloocta[b]thiophene-2-carboxamide], the EC50 on mCX3CR1 came out at 18.2 µM; on rCX3CR1, 15.7 µM; on hCX3CR1 [1] it was 11.8 µM; on hCX3CR1 [2], 1.3 µM.
For the molecule `O=C(NCC1(CN2CCCC2)CCCCC1)c1cc2c(s1)CCCCCC2` [Example 18, N-[[1-(pyrrolidin-1-ylmethyl)cyclohexyl]methyl]-4,5,6,7,8,9-hexahydrocycloocta[b]thiophene-2-carboxamide], the EC50 at mCX3CR1 was 24.9 µM; at rCX3CR1, 23.7 µM; on hCX3CR1 [1] it was 11 µM; on hCX3CR1 [2] it was 0.94 µM.
The like results for `CN(C)CC1(CNC(=O)c2cc3c(s2)CCCCCC3)CCOCC1` [Example 19, N-[[4-[(dimethylamino)methyl]oxan-4-yl]methyl]-4,5,6,7,8,9-hexahydrocycloocta[b]thiophene-2-carboxamide] were, in that order, 30.6 µM, 27.9 µM, 14.3 µM and 1.9 µM.
